# Results from patent US10071962B2, “Androgen receptor modulators and methods for their use” (British Columbia Cancer Agency Branch, priority 2014, dated 2018).
# Molecular target: T1, androgen receptor (AR) (Homo sapiens, UniProt P10275, T878A)
# T1 construct: they express endogenous androgen receptor (AR) and secrete prostate-specific antigen (PSA); endogenous in cells; host or cells: LNCaP
# T1 sequence (P10275 1-920 T878A): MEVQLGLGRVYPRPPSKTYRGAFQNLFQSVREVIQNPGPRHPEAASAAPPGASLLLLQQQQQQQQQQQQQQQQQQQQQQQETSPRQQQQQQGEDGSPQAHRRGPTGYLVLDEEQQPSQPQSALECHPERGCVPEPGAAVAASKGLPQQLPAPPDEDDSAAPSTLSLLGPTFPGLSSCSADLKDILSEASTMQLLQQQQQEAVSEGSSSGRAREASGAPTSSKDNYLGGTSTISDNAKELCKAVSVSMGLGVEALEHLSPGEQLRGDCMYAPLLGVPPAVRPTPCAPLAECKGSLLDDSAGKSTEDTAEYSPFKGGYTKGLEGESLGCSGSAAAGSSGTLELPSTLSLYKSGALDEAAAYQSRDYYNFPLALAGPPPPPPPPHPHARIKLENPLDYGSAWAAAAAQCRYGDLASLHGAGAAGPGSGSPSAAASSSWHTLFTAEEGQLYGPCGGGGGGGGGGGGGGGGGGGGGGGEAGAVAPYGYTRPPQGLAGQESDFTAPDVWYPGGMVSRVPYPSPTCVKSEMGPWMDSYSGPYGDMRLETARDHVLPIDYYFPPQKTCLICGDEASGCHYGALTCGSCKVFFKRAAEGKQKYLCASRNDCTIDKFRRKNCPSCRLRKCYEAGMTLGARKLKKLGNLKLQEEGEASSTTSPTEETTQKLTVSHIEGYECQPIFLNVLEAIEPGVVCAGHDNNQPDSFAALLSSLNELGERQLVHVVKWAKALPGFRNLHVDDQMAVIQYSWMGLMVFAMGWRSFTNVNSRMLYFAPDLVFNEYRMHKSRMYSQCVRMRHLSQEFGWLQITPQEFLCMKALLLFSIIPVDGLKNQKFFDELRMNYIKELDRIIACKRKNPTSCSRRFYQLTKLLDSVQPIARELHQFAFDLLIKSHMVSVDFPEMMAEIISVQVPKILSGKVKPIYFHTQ
# Assay: PSA (6.1 kb)-luciferase reporter assay in LNCaP cells, R1881-induced AR transcriptional activity
# Assay type: cell-based
# Conditions: LNCaP cells transfected with PSA (6.1 kb)-luciferase; 1 h pre-treatment, R1881 1 nM, 48 h; various concentrations
# Protocol: R1881 (a synthetic androgen) is employed since it is stable and avoids problems associated with the labile physiological ligand dihydrotestosterone (DHT).
# LNCaP (2.4×10^4 cell/well) cells were seeded on 24-well plates overnight before transfection with PSA (6.1 kb)-luciferase plasmid (0.25 ug/well) in serum-free, red phenol-free media. The next day, cells were pre-treated with compounds of the invention for 1 hour before the addition of synthetic androgen, R1881 (1 nM) to transactivate androgen receptor (AR). After 48 h of incubation with R1881, the cells were harvested, and relative luciferase activity was determined as a read-out for androgen receptor (AR) transcriptional activity relative to a control. Test compounds were added to the cells at various concentrations and activity for each treatment was normalized to the predicted maximal activity induction (in the absence of test compounds, vehicle only). Transfection experiments were performed using triplicate wells.
row,Structure (SMILES),luciferase activity relative to the control (read-out for AR transcriptional activity)
1,CCC(=O)N[C@@H](CCC(Cl)(Cl)Cl)C(=O)N1C(=O)C=C(OC)[C@@H]1CCC(Cl)(Cl)Cl [Compound 1-1a],decrease in luciferase activity relative to the control
2,CCC(=O)N[C@@H](CCC(Cl)(Cl)Cl)C(=O)N1C(=O)C=C(OC)[C@H]1CCC(Cl)(Cl)Cl [Compound 1-1b],decrease in luciferase activity relative to the control
3,CCC(=O)N[C@H](CCC(Cl)(Cl)Cl)C(=O)N1C(=O)C=C(OC)[C@@H]1CCC(Cl)(Cl)Cl [Compound 1-1c],decrease in luciferase activity relative to the control
4,CCC(=O)N[C@H](CCC(Cl)(Cl)Cl)C(=O)N1C(=O)C=C(OC)[C@H]1CCC(Cl)(Cl)Cl [Compound 1-1d],decrease in luciferase activity relative to the control
5,C#CCCC(=O)N[C@H](CCC(Cl)(Cl)Cl)C(=O)N1C(=O)C=C(OC)[C@@H]1CCC(Cl)(Cl)Cl [Compound 1-2c],decrease in luciferase activity relative to the control
6,C#CCCC(=O)N[C@H](CCC(Cl)(Cl)Cl)C(=O)N1C(=O)C=C(OC)[C@H]1CCC(Cl)(Cl)Cl [Compound 1-2d],decrease in luciferase activity relative to the control
7,COC1=CC(=O)N(C(=O)[C@H](N)CCC(Cl)(Cl)Cl)[C@H]1CCC(Cl)(Cl)Cl [Compound 1-4c],decrease in luciferase activity relative to the control
8,COC1=CC(=O)N(C(=O)[C@H](N)CCC(Cl)(Cl)Cl)[C@@H]1CCC(Cl)(Cl)Cl [Compound 1-4d],decrease in luciferase activity relative to the control
9,CCS(=O)(=O)N[C@H](CCC(Cl)(Cl)Cl)C(=O)N1C(=O)C=C(OC)[C@H]1CCC(Cl)(Cl)Cl [Compound 1-6d],decrease in luciferase activity relative to the control
10,CCC(=O)N[C@H](CCC(Cl)(Cl)Cl)C(=O)N1C(=O)C=C(OC)[C@@H]1CC(C)C [Compound 1-7c],decrease in luciferase activity relative to the control
11,CCC(=O)N[C@H](CCC(Cl)(Cl)Cl)C(=O)N1C(=O)C=C(OC)[C@H]1CC(C)C [Compound 1-7d],decrease in luciferase activity relative to the control
12,CCC(=O)N[C@H](CC(C)C)C(=O)N1C(=O)C=C(OC)[C@@H]1CCC(Cl)(Cl)Cl [Compound 1-8c],decrease in luciferase activity relative to the control
13,CCC(=O)N[C@H](CC(C)C)C(=O)N1C(=O)C=C(OC)[C@H]1CCC(Cl)(Cl)Cl [Compound 1-8d],slight increase in luciferase activity relative to the control
14,C#CCCC(=O)N[C@H](CCC(Cl)(Cl)Cl)C(=O)N1C(=O)C=C(OC)[C@@H]1CC(C)C [Compound 1-9c],decrease in luciferase activity relative to the control
